Consider 14 molecules from PMC6522510 (Nature Communications, 2019).

Among the test systems are CMK; U937; CHRF288-11; MOLM-13; ML-2; M07e; CMS; MV4-11.
Design in all cases: species or system AML cell lines (8); Primary HTS, single concentration about 10 uM, Cell Titer Glo viability; log10 luminescence, per cent inhibition relative to cycloheximide control
What all share (settings): 72 h, relative to cycloheximide control, log10 luminescence, inhibitor
For orientation: ATP-based viability assays read luminescence as a measure of living cells.

Structures can show the parent of a compound that is named as a salt. Where two headings read alike, the source gives them in different places.

Turning to `COc1ccc(Nc2ncc(-c3ccccc3)o2)cc1OC` [SJ000573259-1, U14961/58/1], the CMK %inh with CMK was 5.775%. In addition, the U937 %inh in the test with U937 is -1.171%. In the test with CHRF288-11, the CHRF288-11 %inh is reported as -4.817%. For the same molecule, the MOLM-13 %inh in the test with MOLM-13 was determined as 83.48%. For the same molecule, in the test with ML-2, the ML-2 %inh worked out at 4.567%. Besides, the M07e %inh with M07e turned out to be 6.596%. Moreover, in the test on CMS, the CMS %inh is 0.9883%. Also, the MV4-11 %inh in the test on MV4-11 was 88.15%.
For the molecule `Nc1ccc(S(=O)(=O)Nc2ccccn2)cc1` [SJ000285852-5, SULFAPYRIDINE], the CMK %inh in the test on CMK (CMK %inh, 10 µM) is recorded as -1.27%. Moreover, the U937 %inh in the test with U937 (U937 %inh, 10 µM) stood at 0.04414%. For the same molecule, the CHRF288-11 %inh with CHRF288-11 (CHRF288-11 %inh, 10 µM) was 1.364%. In addition, the MOLM-13 %inh in the test with MOLM-13 (MOLM-13 %inh, 10 µM) was 1.863%. For the same molecule, the ML-2 %inh in the test with ML-2 (ML-2 %inh, 10 µM) is reported as -1.492%. In addition, the M07e %inh in the test on M07e (M07e %inh, 10 µM) is on record as 0.899%. Besides, in the test with CMS (CMS %inh, 10 µM), the CMS %inh is 2.339%. Also, in the test with MV4-11 (MV4-11 %inh, 10 µM), the MV4-11 %inh turned out to be 1.788%.
For `COc1ccc(COc2ccc(Cc3cnc(N)nc3N)cc2OC)cc1` [SJ000573290-1, U22490/41/5 | GW2580 | CFMS RECEPTOR TYROSINE KINASE INHIBITOR | CSF-1 RECEPTOR INHIBITOR | GW-2580 | GW2580], the CMK %inh in the test on CMK was 9.776%. Further, the U937 %inh in the test on U937 came out at 5.457%. Besides, the CHRF288-11 %inh with CHRF288-11 came to 2.429%. Besides, the MOLM-13 %inh in the test on MOLM-13 was determined as 5.043%. For the same molecule, the ML-2 %inh with ML-2 is 2.578%. For the same molecule, the M07e %inh with M07e was found to be 0.1702%. Further, in the test on CMS, the CMS %inh is on record as -2.221%. Also, the MV4-11 %inh in the test with MV4-11 is 1.548%.
On to `CCCC(CCC)C(=O)O` [SJ000287008-6, VALPROATE SODIUM | VALPROIC ACID SODIUM | DIVALPROEX SODIUM | SODIUM VALPROATE | ABBOTT-44090 | NIK-313 | NIK-317 | VALPROATE SODIUM | VALPROIC ACID SODIUM SALT | | SODIUM VALPROATE | VALPROATE SODIUM | VALPROIC ACID SODIUM SALT | ABBOTT-44090 | NIK-313 | NIK-317 | | SODIUM VALPROATE | VALPROIC ACID SODIUM SALT (SODIUM VALPROATE)], for which, in the test with CMK (CMK %inh, 10 µM), the CMK %inh was -3.672%. Also, the U937 %inh with U937 (U937 %inh, 10 µM) is listed as -3.41%. Besides, the CHRF288-11 %inh in the test with CHRF288-11 (CHRF288-11 %inh, 10 µM) turned out to be 0.5614%. The MOLM-13 %inh in the test on MOLM-13 (MOLM-13 %inh, 10 µM) is -2.019%. The ML-2 %inh in the test on ML-2 (ML-2 %inh, 10 µM) is listed as -1.422%. Further, in the test on M07e (M07e %inh, 10 µM), the M07e %inh was -0.5439%. Further, the CMS %inh in the test on CMS (CMS %inh, 10 µM) is listed as -1.126%. Also, the MV4-11 %inh in the test with MV4-11 (MV4-11 %inh, 10 µM) is given as -1.147%.
As for `Fc1ccc(-c2c(-c3ccncc3)[nH]c3nccnc23)cc1` [SJ000580991-1], the CMK %inh in the test with CMK worked out at 11.62%. Also, in the test with U937, the U937 %inh turned out to be 0.7484%. Moreover, the CHRF288-11 %inh with CHRF288-11 came out at 0.1739%. In addition, in the test with MOLM-13, the MOLM-13 %inh is reported as -0.4618%. Also, the ML-2 %inh in the test on ML-2 is on record as -4.337%. For the same molecule, the M07e %inh in the test with M07e was -1.27%. In addition, the CMS %inh in the test with CMS came to 2.205%. Besides, the MV4-11 %inh in the test with MV4-11 is recorded as -5.653%.
Turning to `NS(=O)(=O)c1cccc(-c2cc3ccncc3cc2OCc2ccccc2)c1` [SJ000573034-1, R14712/3/10], in the test on CMK, the CMK %inh is -0.5905%. The U937 %inh with U937 turned out to be 3.709%. Moreover, the CHRF288-11 %inh with CHRF288-11 is given as 2.678%. For the same molecule, in the test with MOLM-13, the MOLM-13 %inh stood at 2.316%. The ML-2 %inh in the test on ML-2 turned out to be 0.9825%. For the same molecule, in the test on M07e, the M07e %inh was -1.198%. Moreover, the CMS %inh with CMS is 1.551%. Moreover, the MV4-11 %inh with MV4-11 turned out to be 0.8878%.
For `O=C1C(c2c[nH]c3ccccc23)=C(c2c[nH]c3ccccc23)C(=O)N1O` [SJ000581067-1], the CMK %inh in the test with CMK is on record as -5.714%. For the same molecule, in the test on U937, the U937 %inh is recorded as -1.683%. Further, the CHRF288-11 %inh in the test on CHRF288-11 came out at 18.95%. Also, in the test with MOLM-13, the MOLM-13 %inh is 0.2373%. Besides, in the test on ML-2, the ML-2 %inh was -0.2137%. The M07e %inh in the test with M07e was 0.7451%. In the test on CMS, the CMS %inh is on record as -0.1746%. In the test on MV4-11, the MV4-11 %inh worked out at 1.166%.
Take `O=C(Nc1ccc(Oc2ccc3[nH]c(NC(=O)c4ccco4)nc3c2)cc1)Nc1cc(C(F)(F)F)ccc1F` [SJ000573033-1, T261/93/1]: in the test with CMK, the CMK %inh was determined as 84.76%. Also, the U937 %inh with U937 stood at 42.07%. The CHRF288-11 %inh in the test on CHRF288-11 was 89.61%. Moreover, in the test on MOLM-13, the MOLM-13 %inh worked out at 87.05%. For the same molecule, the ML-2 %inh in the test with ML-2 was 20.85%. In the test on M07e, the M07e %inh turned out to be 35.38%. The CMS %inh with CMS was 23.46%. The MV4-11 %inh in the test on MV4-11 came to 70.61%.
On to `Nc1nc(-c2ccc(F)cc2)c(-c2ccc3ncccc3n2)s1` [SJ000573357-1, R5931/120/1], for which the CMK %inh in the test on CMK is -0.6603%. Besides, the U937 %inh in the test with U937 was 3.577%. For the same molecule, the CHRF288-11 %inh with CHRF288-11 is reported as 7.658%. In the test on MOLM-13, the MOLM-13 %inh worked out at 3.49%. Also, the ML-2 %inh with ML-2 was -0.2788%. Moreover, the M07e %inh in the test on M07e was determined as 0.3459%. In the test on CMS, the CMS %inh amounted to 0.9588%. Further, the MV4-11 %inh with MV4-11 is listed as -0.2605%.
Regarding `CCCn1cc(C2=C(c3cn(C)c4ccccc34)C(=O)NC2=O)c2ccccc21` [SJ000580980-1], in the test with CMK, the CMK %inh was 44.58%. Moreover, the U937 %inh in the test on U937 was 35.21%. Besides, the CHRF288-11 %inh with CHRF288-11 was found to be 31.26%. The MOLM-13 %inh with MOLM-13 was found to be 64.41%. The ML-2 %inh in the test on ML-2 amounted to 30.17%. Besides, in the test on M07e, the M07e %inh amounted to 35.81%. Moreover, the CMS %inh with CMS came out at 13.73%. Moreover, the MV4-11 %inh in the test on MV4-11 was 13.35%.
Turning to `Cn1c(=O)c(Oc2ccc(F)cc2F)cc2cnc(NC(CO)CO)nc21` [SJ000581024-1], in the test on CMK, the CMK %inh is reported as -1.172%. Moreover, in the test on U937, the U937 %inh was found to be 3.277%. In addition, in the test with CHRF288-11, the CHRF288-11 %inh is -0.0002567%. Further, the MOLM-13 %inh with MOLM-13 turned out to be 0.3413%. In addition, in the test with ML-2, the ML-2 %inh is recorded as 0.9662%. The M07e %inh in the test with M07e is reported as 1.393%. Besides, in the test with CMS, the CMS %inh is recorded as -1.976%. Also, the MV4-11 %inh with MV4-11 turned out to be 1.357%.
As to `O=C(O[C@H]1CN[C@H](C#Cc2cc3ncnc(Nc4ccc5c(cnn5Cc5ccccc5)c4)c3s2)C1)N1CCOCC1` [SJ000573215-1, U19635/172/2], in the test on CMK, the CMK %inh is 78.93%. In addition, the U937 %inh with U937 was 3.001%. In addition, in the test on CHRF288-11, the CHRF288-11 %inh came out at 51%. The MOLM-13 %inh in the test with MOLM-13 is 2.242%. Further, the ML-2 %inh with ML-2 was 2.941%. The M07e %inh with M07e is listed as -0.8707%. Further, the CMS %inh with CMS is 5.16%. Further, the MV4-11 %inh in the test with MV4-11 is recorded as 1.975%.
On to `CCCC[C@@H](C=O)NC(=O)[C@H](CC(C)C)NC(=O)OCc1ccccc1` [SJ000755074-1, CALPEPTIN], for which, in the test with CMK (CMK %inh, 10 µM), the CMK %inh is recorded as -0.01297%. Further, the U937 %inh in the test on U937 (U937 %inh, 10 µM) worked out at 2.282%. Also, the CHRF288-11 %inh with CHRF288-11 (CHRF288-11 %inh, 10 µM) came out at 18.64%. In the test on MOLM-13 (MOLM-13 %inh, 10 µM), the MOLM-13 %inh was 2.613%. The ML-2 %inh with ML-2 (ML-2 %inh, 10 µM) is listed as -0.6331%. Besides, the M07e %inh in the test with M07e (M07e %inh, 10 µM) amounted to 0.9114%. Besides, the CMS %inh in the test with CMS (CMS %inh, 10 µM) was 3.296%. Moreover, in the test with MV4-11 (MV4-11 %inh, 10 µM), the MV4-11 %inh was 4.895%.
Consider `CC(CN(C)C)CN1c2ccccc2Sc2ccccc21` (stereo not shown) [SJ000285488-4, TRIMEPRAZINE TARTRATE], for which the CMK %inh in the test with CMK worked out at 71.37%. Further, the U937 %inh in the test with U937 was 3.719%. In addition, in the test with CHRF288-11, the CHRF288-11 %inh stood at 12.91%. Moreover, in the test with MOLM-13, the MOLM-13 %inh is 6.284%. Besides, in the test on ML-2, the ML-2 %inh worked out at 2.204%. For the same molecule, the M07e %inh in the test on M07e came to 5.667%. Moreover, in the test on CMS, the CMS %inh is recorded as -1.909%. For the same molecule, the MV4-11 %inh in the test with MV4-11 is recorded as 2.005%.
